Source: ChEMBL document CHEMBL1201862, “PubChem BioAssay data set” (2004)
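Tested at 5 concentrations; 48 h exposure; 96-well plates; endpoints linearly interpolated, else capped at highest concentration. Abbreviation: GI50, concentration required for 50% inhibition of growth.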 Active and inactive are the calls of the source. Rule as the data show it: active = GI50 up to about 1.1 µM and inactive = higher.

What was measured:
Test in all cases: growth of human tumour cells (NCI), 48 h
SK-MEL-28 = system: SK-MEL-28
HCC 2998 = system: HCC 2998
RPMI-8226 = system: RPMI-8226
OVCAR-5 = system: OVCAR-5
RXF 393 = system: RXF 393
SF-295 = system: SF-295
A549 = system: A549
TK-10 = system: TK-10
NCI-H23 = system: NCI-H23
HT-29 = system: HT-29
EKVX = system: EKVX
HOP-92 = system: HOP-92
COLO 205 = system: COLO 205
NCI-H460 = system: NCI-H460
K562 = system: K562
OVCAR-3 = system: OVCAR-3
A498 = system: A498
SNB-75 = system: SNB-75
SF-539 = system: SF-539

Measured: GI50

CCN(CC)CCn1ncc2c(N)ncnc21
inactive: SK-MEL-28 > 100 µM | HCC 2998 > 100 µM | RPMI-8226 > 100 µM | OVCAR-5 > 100 µM | RXF 393 > 100 µM | SF-295 > 100 µM | A549 > 100 µM | TK-10 > 100 µM | NCI-H23 > 100 µM | HT-29 > 100 µM | EKVX > 100 µM | HOP-92 > 100 µM | COLO 205 > 100 µM | NCI-H460 > 100 µM | K562 > 100 µM | OVCAR-3 > 100 µM | A498 > 100 µM

NC(=O)NNC(=O)NC12CC3CC(CC(C3)C1)C2
inactive: SNB-75 > 100 µM | SK-MEL-28 > 100 µM | HCC 2998 > 100 µM | OVCAR-5 > 100 µM | RXF 393 > 100 µM | SF-295 > 100 µM | A549 > 100 µM | TK-10 > 100 µM | NCI-H23 > 100 µM | HT-29 > 100 µM | EKVX > 100 µM | HOP-92 > 100 µM | SF-539 > 100 µM | COLO 205 > 100 µM | NCI-H460 > 100 µM | K562 > 100 µM | OVCAR-3 > 100 µM | A498 > 100 µM

COc1ccc2c(c1)C(O)(C(F)(F)F)c1cc(C(=O)C(F)(F)F)c3ccccc3c1N2 (stereo unspecified)
inactive: SNB-75 16.9 µM | SK-MEL-28 14.6 µM | HCC 2998 11.9 µM | OVCAR-5 14.4 µM | RXF 393 11.5 µM | SF-295 13.2 µM | A549 11.6 µM | TK-10 13.5 µM | NCI-H23 12.4 µM | HT-29 7.73 µM | EKVX 18.3 µM | HOP-92 16 µM | SF-539 16.3 µM | COLO 205 6.75 µM | NCI-H460 8.89 µM | K562 3.7 µM | OVCAR-3 14.9 µM | A498 14.3 µM

O=c1[nH]c(C2CCCCC2)nc2c(Cl)cccc12
inactive: SNB-75 > 100 µM | SK-MEL-28 > 100 µM | HCC 2998 > 100 µM | OVCAR-5 > 100 µM | RXF 393 > 100 µM | SF-295 > 100 µM | A549 > 100 µM | TK-10 > 100 µM | NCI-H23 > 100 µM | HT-29 > 100 µM | EKVX 26.1 µM | HOP-92 > 100 µM | SF-539 > 100 µM | COLO 205 > 100 µM | NCI-H460 > 100 µM | K562 > 100 µM | OVCAR-3 > 100 µM | A498 > 100 µM
